In the supplement of paper PMC8671470:

What follows are compounds tested on MV4-11 (assay: cell viability (% survival relative to DMSO control); higher = less cytotoxic). Details: drug1 concentration 10 nM; drug2 concentration 500 nM; 72 h.
Protocol: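 8x8 drug-combination matrices (0–5000 nM; rosiglitazone and lestaurtinib 0–1000 nM) were run in MV4-11 cells for 72 h with CellTiter-Glo read-out. Survival is normalised to DMSO and 10 µM bortezomib and clipped at 100%.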
`CC(C)c1onc(-c2c(Cl)cccc2Cl)c1COc1ccc(/C=C/c2cccc(C(=O)O)c2)c(Cl)c1` [GW4064] + Cn1cc(-c2ccncc2)c(-c2ccc(OCc3ccc4ccccc4n3)cc2)n1 [PF-02545920] showed a cell viability of 96.2%.

Same assay, conditions: drug1 concentration 10 nM; drug2 concentration 1000 nM; 72 h
`O=C(C1CC1)N1CC[C@@H](C=C2NNC(=O)N2c2ccc(-c3ccc4occc4c3)cc2)C1` + CS(=O)(=O)N1CCN(Cc2cc3nc(-c4cccc5[nH]ncc45)nc(N4CCOCC4)c3s2)CC1 [Pictilisib] gave a cell viability of 71.7%.
`O=C(C1CC1)N1CC[C@@H](C=C2NNC(=O)N2c2ccc(-c3ccc4occc4c3)cc2)C1` + C[C@H](NC(=O)c1sccc1OCc1ccc(Cl)cc1)c1ccccc1 [as1949490] was tested, and the cell viability was > 100%.
`O=C(C1CC1)N1CC[C@@H](C=C2NNC(=O)N2c2ccc(-c3ccc4occc4c3)cc2)C1` + O=C(c1c2ccccc2cc2ccccc12)N1CCC(N2CCC[C@@H](C(=O)N3CCOCC3)C2)CC1 [CP-640186] showed a cell viability of 97.9%.
In the case of `CC(C)c1onc(-c2c(Cl)cccc2Cl)c1COc1ccc(/C=C/c2cccc(C(=O)O)c2)c(Cl)c1` [GW4064] + Cn1cc(-c2ccncc2)c(-c2ccc(OCc3ccc4ccccc4n3)cc2)n1 [PF-02545920], the cell viability is reported as > 100%.

Same assay, conditions: drug1 concentration 10 nM; drug2 concentration 5000 nM; 72 h
In the case of `O=C(C1CC1)N1CC[C@@H](C=C2NNC(=O)N2c2ccc(-c3ccc4occc4c3)cc2)C1` + CS(=O)(=O)N1CCN(Cc2cc3nc(-c4cccc5[nH]ncc45)nc(N4CCOCC4)c3s2)CC1 [Pictilisib], the cell viability is reported as 49.4%.
`O=C(C1CC1)N1CC[C@@H](C=C2NNC(=O)N2c2ccc(-c3ccc4occc4c3)cc2)C1` + C[C@H](NC(=O)c1sccc1OCc1ccc(Cl)cc1)c1ccccc1 [as1949490] showed a cell viability of 85.6%.
`O=C(C1CC1)N1CC[C@@H](C=C2NNC(=O)N2c2ccc(-c3ccc4occc4c3)cc2)C1` + O=C(c1c2ccccc2cc2ccccc12)N1CCC(N2CCC[C@@H](C(=O)N3CCOCC3)C2)CC1 [CP-640186] was tested, and the cell viability was 86%.
For `CC(C)c1onc(-c2c(Cl)cccc2Cl)c1COc1ccc(/C=C/c2cccc(C(=O)O)c2)c(Cl)c1` [GW4064] + Cn1cc(-c2ccncc2)c(-c2ccc(OCc3ccc4ccccc4n3)cc2)n1 [PF-02545920], the cell viability was 54%.

Same assay, conditions: drug1 concentration 50 nM; drug2 concentration 5 nM; 72 h
For `O=C(C1CC1)N1CC[C@@H](C=C2NNC(=O)N2c2ccc(-c3ccc4occc4c3)cc2)C1` + CS(=O)(=O)N1CCN(Cc2cc3nc(-c4cccc5[nH]ncc45)nc(N4CCOCC4)c3s2)CC1 [Pictilisib], the cell viability was > 100%.
`O=C(C1CC1)N1CC[C@@H](C=C2NNC(=O)N2c2ccc(-c3ccc4occc4c3)cc2)C1` + C[C@H](NC(=O)c1sccc1OCc1ccc(Cl)cc1)c1ccccc1 [as1949490] was tested, and the cell viability was > 100%.
`O=C(C1CC1)N1CC[C@@H](C=C2NNC(=O)N2c2ccc(-c3ccc4occc4c3)cc2)C1` + O=C(c1c2ccccc2cc2ccccc12)N1CCC(N2CCC[C@@H](C(=O)N3CCOCC3)C2)CC1 [CP-640186] showed a cell viability of 93.4%.
In the case of `CC(C)c1onc(-c2c(Cl)cccc2Cl)c1COc1ccc(/C=C/c2cccc(C(=O)O)c2)c(Cl)c1` [GW4064] + Cn1cc(-c2ccncc2)c(-c2ccc(OCc3ccc4ccccc4n3)cc2)n1 [PF-02545920], the cell viability is reported as > 100%.

Same assay, conditions: drug1 concentration 50 nM; drug2 concentration 10 nM; 72 h
For `O=C(C1CC1)N1CC[C@@H](C=C2NNC(=O)N2c2ccc(-c3ccc4occc4c3)cc2)C1` + CS(=O)(=O)N1CCN(Cc2cc3nc(-c4cccc5[nH]ncc45)nc(N4CCOCC4)c3s2)CC1 [Pictilisib], the cell viability was > 100%.
For `O=C(C1CC1)N1CC[C@@H](C=C2NNC(=O)N2c2ccc(-c3ccc4occc4c3)cc2)C1` + C[C@H](NC(=O)c1sccc1OCc1ccc(Cl)cc1)c1ccccc1 [as1949490], the cell viability was > 100%.
In the case of `O=C(C1CC1)N1CC[C@@H](C=C2NNC(=O)N2c2ccc(-c3ccc4occc4c3)cc2)C1` + O=C(c1c2ccccc2cc2ccccc12)N1CCC(N2CCC[C@@H](C(=O)N3CCOCC3)C2)CC1 [CP-640186], the cell viability is reported as > 100%.
Compound `CC(C)c1onc(-c2c(Cl)cccc2Cl)c1COc1ccc(/C=C/c2cccc(C(=O)O)c2)c(Cl)c1` [GW4064] + Cn1cc(-c2ccncc2)c(-c2ccc(OCc3ccc4ccccc4n3)cc2)n1 [PF-02545920] has a cell viability of 91%.

Same assay, conditions: drug1 concentration 50 nM; drug2 concentration 50 nM; 72 h
In the case of `O=C(C1CC1)N1CC[C@@H](C=C2NNC(=O)N2c2ccc(-c3ccc4occc4c3)cc2)C1` + CS(=O)(=O)N1CCN(Cc2cc3nc(-c4cccc5[nH]ncc45)nc(N4CCOCC4)c3s2)CC1 [Pictilisib], the cell viability is reported as 94.2%.
For `O=C(C1CC1)N1CC[C@@H](C=C2NNC(=O)N2c2ccc(-c3ccc4occc4c3)cc2)C1` + C[C@H](NC(=O)c1sccc1OCc1ccc(Cl)cc1)c1ccccc1 [as1949490], the cell viability was > 100%.
With `O=C(C1CC1)N1CC[C@@H](C=C2NNC(=O)N2c2ccc(-c3ccc4occc4c3)cc2)C1` + O=C(c1c2ccccc2cc2ccccc12)N1CCC(N2CCC[C@@H](C(=O)N3CCOCC3)C2)CC1 [CP-640186] the cell viability was > 100%.
In the case of `CC(C)c1onc(-c2c(Cl)cccc2Cl)c1COc1ccc(/C=C/c2cccc(C(=O)O)c2)c(Cl)c1` [GW4064] + Cn1cc(-c2ccncc2)c(-c2ccc(OCc3ccc4ccccc4n3)cc2)n1 [PF-02545920], the cell viability is reported as > 100%.

Same assay, conditions: drug1 concentration 50 nM; drug2 concentration 100 nM; 72 h
In the case of `O=C(C1CC1)N1CC[C@@H](C=C2NNC(=O)N2c2ccc(-c3ccc4occc4c3)cc2)C1` + CS(=O)(=O)N1CCN(Cc2cc3nc(-c4cccc5[nH]ncc45)nc(N4CCOCC4)c3s2)CC1 [Pictilisib], the cell viability is reported as 99.6%.
In the case of `O=C(C1CC1)N1CC[C@@H](C=C2NNC(=O)N2c2ccc(-c3ccc4occc4c3)cc2)C1` + C[C@H](NC(=O)c1sccc1OCc1ccc(Cl)cc1)c1ccccc1 [as1949490], the cell viability is reported as > 100%.
For `O=C(C1CC1)N1CC[C@@H](C=C2NNC(=O)N2c2ccc(-c3ccc4occc4c3)cc2)C1` + O=C(c1c2ccccc2cc2ccccc12)N1CCC(N2CCC[C@@H](C(=O)N3CCOCC3)C2)CC1 [CP-640186], the cell viability was > 100%.
With `CC(C)c1onc(-c2c(Cl)cccc2Cl)c1COc1ccc(/C=C/c2cccc(C(=O)O)c2)c(Cl)c1` [GW4064] + Cn1cc(-c2ccncc2)c(-c2ccc(OCc3ccc4ccccc4n3)cc2)n1 [PF-02545920] the cell viability was > 100%.

Same assay, conditions: drug1 concentration 50 nM; drug2 concentration 500 nM; 72 h
With `O=C(C1CC1)N1CC[C@@H](C=C2NNC(=O)N2c2ccc(-c3ccc4occc4c3)cc2)C1` + CS(=O)(=O)N1CCN(Cc2cc3nc(-c4cccc5[nH]ncc45)nc(N4CCOCC4)c3s2)CC1 [Pictilisib] the cell viability was > 100%.
In the case of `O=C(C1CC1)N1CC[C@@H](C=C2NNC(=O)N2c2ccc(-c3ccc4occc4c3)cc2)C1` + C[C@H](NC(=O)c1sccc1OCc1ccc(Cl)cc1)c1ccccc1 [as1949490], the cell viability is reported as > 100%.
Work on `O=C(C1CC1)N1CC[C@@H](C=C2NNC(=O)N2c2ccc(-c3ccc4occc4c3)cc2)C1` + O=C(c1c2ccccc2cc2ccccc12)N1CCC(N2CCC[C@@H](C(=O)N3CCOCC3)C2)CC1 [CP-640186] yielded a cell viability of 88.9%.
For `CC(C)c1onc(-c2c(Cl)cccc2Cl)c1COc1ccc(/C=C/c2cccc(C(=O)O)c2)c(Cl)c1` [GW4064] + Cn1cc(-c2ccncc2)c(-c2ccc(OCc3ccc4ccccc4n3)cc2)n1 [PF-02545920], the cell viability was > 100%.

Same assay, conditions: drug1 concentration 50 nM; drug2 concentration 1000 nM; 72 h
`O=C(C1CC1)N1CC[C@@H](C=C2NNC(=O)N2c2ccc(-c3ccc4occc4c3)cc2)C1` + CS(=O)(=O)N1CCN(Cc2cc3nc(-c4cccc5[nH]ncc45)nc(N4CCOCC4)c3s2)CC1 [Pictilisib] gave a cell viability of 87.8%.
